Experimental data taken from PubChem BioAssay (NCI).
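Assay format: 96-well plates, 48-hour exposure. At the GI50, growth is halved. TGI: total growth inhibition.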

Tests used:
Assay in all cases: DTP human tumour cell line panel, 48 h
786-0 renal = system: 786-0 renal
COLO 205 colon = system: COLO 205 colon
RXF 393 renal = system: RXF 393 renal
SK-MEL-2 melanoma = system: SK-MEL-2 melanoma
OVCAR-3 ovarian = system: OVCAR-3 ovarian
OVCAR-8 ovarian = system: OVCAR-8 ovarian
SF-539 CNS = system: SF-539 CNS
HOP-92 NSCLC = system: HOP-92 NSCLC
T-47D breast = system: T-47D breast
LOX IMVI melanoma = system: LOX IMVI melanoma

| Structure (SMILES) | GI50 (786-0 renal) | TGI (786-0 renal) | GI50 (COLO 205 colon) | TGI (COLO 205 colon) | GI50 (RXF 393 renal) | TGI (RXF 393 renal) | GI50 (SK-MEL-2 melanoma) | TGI (SK-MEL-2 melanoma) | GI50 (OVCAR-3 ovarian) | TGI (OVCAR-3 ovarian) | GI50 (OVCAR-8 ovarian) | TGI (OVCAR-8 ovarian) | GI50 (SF-539 CNS) | TGI (SF-539 CNS) | GI50 (HOP-92 NSCLC) | TGI (HOP-92 NSCLC) | GI50 (T-47D breast) | TGI (T-47D breast) | GI50 (LOX IMVI melanoma) | TGI (LOX IMVI melanoma) |
| --- | --- | --- | --- | --- | --- | --- | --- | --- | --- | --- | --- | --- | --- | --- | --- | --- | --- | --- | --- | --- |
| C/C(=C(/c1ccccc1)c1ccc(OCC(O)CNCCN2CCOCC2)cc1)c1ccccc1 (configuration not stated) | 1.74 µM | 3.32 µM | 1.95 µM | 4.17 µM | 1.91 µM | 4.22 µM | 2.5 µM | 6.24 µM | 2.43 µM | 7.17 µM | 3.74 µM | 15.1 µM | 1.63 µM | 2.99 µM | 1.5 µM | 4.81 µM | 3.49 µM | 11.3 µM | 1.72 µM | 3.12 µM |
| CN(Cc1ccc(F)cc1)c1ccc(CO)c(Cl)c1 | 10.5 µM | 30.4 µM | 5.86 µM | 19.8 µM | 9.12 µM | > 59 µM | 8.32 µM | 33.8 µM | 3.55 µM | 15 µM | 20.7 µM | > 100 µM | 40.7 µM | > 100 µM | 3.87 µM | 24 µM | 0.667 µM | 4.16 µM | 22.9 µM | > 68.9 µM |
| COc1ccc(-c2c(C#N)c(N)nc(N3CCOCC3)c2C#N)cc1 | 20.7 µM | 76.6 µM | 2.13 µM | 26.5 µM | 16.9 µM | 47.2 µM | 27.1 µM | > 100 µM | 12.9 µM | 45.4 µM | 26 µM | > 100 µM | 32.1 µM | > 100 µM | 14.3 µM | 87.7 µM | 0.828 µM | 6.14 µM | 14.4 µM | 36.9 µM |
| Nc1c(C(=O)c2cccc(C#CCN3CCCCC3)c2)cnn1-c1ccc(F)cc1 | > 25 µM | > 25 µM | 24.9 µM | > 25 µM | 14 µM | > 25 µM | > 25 µM | > 25 µM | > 25 µM | > 25 µM | > 25 µM | > 25 µM | > 25 µM | > 25 µM | 10.3 µM | > 25 µM | 11.3 µM | > 25 µM | > 25 µM | > 25 µM |
| CCCCCCCCCc1ccc(OCCOCCOCCOCCOCCOCCOCCOCCOCCO)cc1 | 1.02 µM | 4.12 µM | 0.243 µM | 0.829 µM | 1.03 µM | 3.37 µM | 0.876 µM | 1.96 µM | 0.428 µM | 2.29 µM | 0.231 µM | 2.71 µM | 0.949 µM | 2.67 µM | 0.792 µM | 3.07 µM | 0.224 µM | 2.75 µM | 0.23 µM | 0.996 µM |
| O=C(CC1(O)C(=O)Nc2ccc(F)cc21)c1ccc(C(=O)NCC2CCC3(CC2)OOC2(CCCCC2)OO3)cc1 (configuration not stated) | 2 µM | 3.81 µM | 5.37 µM | 22.9 µM | 6.19 µM | 21.7 µM | 5.95 µM | 20.7 µM | 1.85 µM | 4.18 µM | 6.3 µM | 35.8 µM | 3.64 µM | 14.8 µM | 1.91 µM | 3.82 µM | 5 µM | 44.2 µM | 0.309 µM | 1.27 µM |
| O=[N+]([O-])c1cc([As](Br)c2ccc(O)c([N+](=O)[O-])c2)ccc1O |  | 4.36 µM |  | 3.25 µM |  | 3.22 µM |  | 2.59 µM |  | 3.53 µM |  | 3.21 µM |  | 3.93 µM |  | 2.96 µM |  | 0.557 µM |  | 3.96 µM |
| Cn1c(=O)n(C)c2cc(CNCCNc3ccnc4cc(Cl)ccc34)ccc21 | 23.1 µM | 71.8 µM | 17.2 µM | 35.8 µM | 12.6 µM | 31.2 µM | 22.6 µM | 52.5 µM | 30.8 µM | > 100 µM | 38.2 µM | > 100 µM | 14.7 µM | 29.4 µM | 10.1 µM | 49.6 µM | 28.3 µM | 86.5 µM | 14.3 µM | 30.1 µM |
| ClCc1cccc(Cn2cnc3c(Cl)nc(Cl)nc32)c1 | 12.4 µM | 26.8 µM | 2.22 µM | 5.39 µM | 0.76 µM | 2.1 µM | 1.98 µM | 4.44 µM | 1.59 µM | 3.21 µM | 1.81 µM | 3.51 µM | 2.2 µM | 14.1 µM | 1.84 µM | 3.63 µM | 1.97 µM | 4.5 µM | 1.69 µM | 3.4 µM |
| CCSc1ccc([C@@H]2[C@@H](O)C(=O)N2c2cc(OC)c(OC)c(OC)c2)cc1 | < 0.016 µM | 29 µM | 0.0163 µM | 0.072 µM | < 0.01 µM | 52.3 µM | 0.0221 µM | 28.4 µM | < 0.01 µM | 0.548 µM | 0.0211 µM | 16.8 µM |  |  |  | 42.1 µM | 14.2 µM | 45.8 µM | < 0.0147 µM | 14.5 µM |
| COc1ccc2c(c1)CN([C@@H](C)[C@H]1CC[C@H]3[C@@H]4CC[C@H]5C[C@@H](O)CC[C@]5(C)[C@H]4CC[C@]13C)CO2 |  | 2.7 µM |  | 3.85 µM |  | 2.74 µM |  | 3.83 µM |  | 18 µM |  | > 24.1 µM |  | 3.33 µM |  | 3.71 µM |  | 18.3 µM |  |  |
| CCCc1nc(Cl)nc(Cl)c1Cl |  | 1.43 µM |  |  |  | 0.798 µM |  | 2.07 µM |  | 0.534 µM |  | 0.637 µM |  | 2.94 µM |  | 0.532 µM |  | 4.49 µM |  | 1.62 µM |
| CN(C)N1C(=O)SCC(c2ccccc2)(c2ccccc2)C1=O |  | > 100 µM |  | > 100 µM |  | > 100 µM |  | > 100 µM |  | > 100 µM |  | > 100 µM |  | > 100 µM |  | > 100 µM |  | > 100 µM |  | > 100 µM |
| O=C1/C(=C\c2ccco2)Oc2ccccc21 |  | > 100 µM |  | > 100 µM |  | > 100 µM |  | > 100 µM |  | > 100 µM |  | > 100 µM |  |  |  | > 100 µM |  | > 100 µM |  | > 100 µM |
| CC(C)(C)NCC(O)COc1c(Br)c(Br)c(Br)c2c1OC(C)(C)C2 (configuration not stated) | 1.58 µM | 3.21 µM | 1.55 µM | 3.2 µM | 2.14 µM | 3.83 µM | 1.6 µM | 3.23 µM | 1.54 µM | 3.11 µM |  |  | 1.67 µM | 3.18 µM | 1.52 µM | 3.17 µM | 1.65 µM | 3.59 µM | 1.68 µM | 3.1 µM |
